Measurements published in patent US20120142730A1 (priority 2010, published 2012).

System: subjects with relapsing remitting multiple sclerosis (RRMS)
Experiment: ALLEGRO phase III trial: patient-reported fatigue (MFIS), SF-36 and EQ5D
Assay type: in vivo, human
Experimental: Eligible subjects were equally randomized 1:1 into one of the following treatment arms: • 1. […] 21, 2007 (see, page 10, line 5 to page 11, line 3). • 2. Matching placebo for laquinimod arm: one capsule is administered once daily. The following assessments were performed at specified time points: • 1. Vital signs were measured at each study visit. • 2. A physical examination is performed at months −1 (screening), (baseline) 1, 3, 6, 12, 18 and 24 (termination/early discontinuation core study). In case of the 6 months extended study, additional examination was performed at month 30 (termination/early discontinuation of extended study). • 3. The following safety clinical laboratory tests were performed: • a. Complete blood count (CBC) with differential—at all scheduled visits. A reticulocyte count was added to the CBC at months 0 (baseline) and 24/30 (termination/early discontinuation). • b. Serum chemistry (including electrolytes, liver enzymes, direct and total bilirubin and pancreatic amylase and CPK), and urinalysis—at all scheduled visits. • c. A rapid urine β-hCG test was performed in women of child-bearing potential at baseline (month 0) and at each scheduled study visit thereafter (at site). • d. β-hCG in women of child-bearing potential was performed at all scheduled visits. • e. Starting after visit Month 3 a rapid urine β-hCG test was performed in women of child-bearing potential every 28 (±2) days. The subject was contacted by telephone within 72 hours after the test was scheduled to be performed and asked specific questions regarding the test. In case of suspected pregnancy (positive urine β-hCG test result), the caller made sure that the study drug has been discontinued and the subject was instructed to arrive at the site as soon as possible with all study drugs. • 4. Markers of inflammation (serum conventional C-reactive protein and fibrinogen)—at screening, baseline and all scheduled visits thereafter. • 5. During the first 3 months periodical phone calls were placed by the site personnel every two weeks. […] ECG was performed at months −1 (screening; additional recording, up to 30 minutes apart is performed if QTc is […] 450 msec), (baseline; three recordings, 15 minutes apart), 1, 2, 3, 6, 12, 18 and 24 (termination/early discontinuation). In case of the 6 months extended study, ECG is performed at month 30 (termination/early discontinuation of the extended study). • 7. Chest X-ray is performed at months −1 (screening), (if not performed within 7 months prior to the screening visit). • 8. Adverse Events (AEs) are monitored throughout the study. • 9. Concomitant medications are monitored throughout the study. • 10. Neurological evaluations, including Expanded Disability Status Scale (EDSS), 25 foot walk test/Ambulation Index (AI), Functional systems (FS) are performed at months −1 (screening), (baseline) and every 3 months during the study and the extended study period. • 11. MS functional Composite (MSFC) was assessed at months −1 (screening) (three practices for training purposes only), at month 0 (baseline), 6, 12, 18 and 24 (termination/early discontinuation). In case of the 6 months extended study, the last MSFC was performed at months 30 (termination/early discontinuation of the extended study). • 12. Subject-reported fatigue was assessed by the Modified Fatigue Impact Scale (MFIS) at months 0, 6, 12, 18, and 24 (termination/early discontinuation). In case of the 6 months extended study, additional MFIS was performed at month 30 (termination/early discontinuation of the extended study). • 13. The general health status was assessed by the EuroQoL (EQ5D) questionnaire at month 0 (baseline) and month 24 (termination/early discontinuation of the study). In case of the 6 months extended study, the last EuroQoL (EQ5D) was performed at month 30 (termination/early discontinuation of the extended study) instead of month 24. • 14. […]

[1] = 0.6 mg daily oral, listed as laquinimod

CCN(C(=O)c1c(O)c2c(Cl)cccc2n(C)c1=O)c1ccccc1 [Laquinimod, laquinimod]
EQ-5D dimensions, health status at Month 24, words (0.6 mg daily oral): 0.6 mg maintained their health status at Month 24 while those treated with placebo reported a
MFIS (Modified Fatigue Impact Scale) adjusted mean score at 24 months (0.6 mg daily oral): 31.9
SF36 Mental component summary, treatment effect (0.6 mg daily oral vs placebo): 1.848
MFIS treatment effect (0.6 mg daily oral vs placebo, month 24, p=0.004): −2.53
EQ5D, effect (0.6 mg daily oral vs placebo, p 0.0267): −2.366
SF36 Physical component summary, effect (0.6 mg daily oral vs placebo, p 0.1354): 0.65
SF36 Mental component summary, treatment effect (0.6 mg daily oral vs placebo, listed as laquinimod): 1.68
EQ5D General Health Status by the Euroqol Questionnaire (0.6 mg daily oral, month 24): 71.0
SF36 - SFMHD Mental component summary (0.6 mg daily oral, month 24): −0.47
SF36 - SFPHD Physical component summary (0.6 mg daily oral, month 24): −0.519
MFIS (Modified Fatigue Impact Scale) adjusted mean score at 24 months [1]: 31.9 (0.71)
SF-36 PCS score over 24 months, words [1]: The PCS score at Month 24 for those treated with laquinimod 0.6 mg remained stable while the
Functional disability due to fatigue (MFIS), words (0.6 mg vs placebo at Month 24): average, associated with less functional disability due to fatigue than placebo at Month 24
Change in adjusted mean MFIS psychosocial subscale score from baseline (at 12 months, p=0.02): significant improvement
Change in adjusted mean MFIS physical subscale score from baseline (at 24 months, p=0.02): significant improvement
Change in adjusted mean MFIS cognitive subscale score from baseline (at 24 months, p=0.05): significant improvement
SF-36 PCS subscale role physical (over 24 months vs placebo, p=0.010): showed improvement
SF-36 PCS subscale physical functioning (over 24 months vs placebo, p=0.016): showed improvement
SF-36 PCS difference from placebo, words (over 24 months, p=0.13): did not reach statistical significance
EQ-5D Anxiety or Depression, effect (vs placebo, Month 24, p 0.0113): 1.425
EQ-5D Mobility, effect (vs placebo, Month 24, p 0.0181): 1.497
EQ-5D Self care, effect (vs placebo, Month 24, p 0.0337): 2.251
EQ-5D Usual activities, effect (vs placebo, Month 24, p 0.4051): 1.129
EQ-5D Pain discomfort, effect (vs placebo, Month 24, p 0.8024): 1.036
